One data set relates to STAT5. The following applies: original high-throughput screen; cited from earlier work.
Data set [1] deals with T1, DHFR (Homo sapiens, UniProt P00374).
T1 sequence (P00374 1-187): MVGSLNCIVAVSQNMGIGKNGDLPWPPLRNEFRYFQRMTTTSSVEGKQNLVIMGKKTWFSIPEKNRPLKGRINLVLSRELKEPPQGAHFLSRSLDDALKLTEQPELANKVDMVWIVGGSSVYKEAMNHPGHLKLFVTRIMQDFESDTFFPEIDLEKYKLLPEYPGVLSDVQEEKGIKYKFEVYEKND

Data set [2] deals with nuclear pSTAT3 and total STAT3 in U3A cells. Nature of the data set: Nuclear and cytoplasmic fractionation immunoblotting in OSM-stimulated U3A cells. Type of data set: cell-based, human. As to conditions: 10 μM 1 h, 10 ng/ml OSM 30 min. The procedure: It should be noted that, given the variability inherent in chromatin immunoprecipitation (IP), few of the individual changes in binding reached statistical significance. However, the trend in each of the five genes was identical.
B, MDA-MB-468 cells were treated with 5 μM PYR for 24 h. Nuclear and cytoplasmic fractions were analyzed by immunoblotting with the indicated antibodies. PARP and tubulin were used as nuclear and cytoplasmic markers, respectively. C, U3A human fibrosarcoma cells stably expressing STAT3-dependent luciferase were pretreated with 10 μM PYR for 1 h and stimulated with 10 ng/ml oncostatin M (OSM) for 30 min. Nuclear and cytoplasmic fractions were analyzed by immunoblotting with the indicated antibodies. […] D, SKBR3 cells were treated with 10 μM PYR for 1 h, stimulated with 10 ng/ml leukemia inhibitory factor (LIF) for 30 min, and analyzed by chromatin immunoprecipitation with antibodies to STAT3 and RNA pol II (pol II). Binding at the indicated target genes was assessed by quantitative RT–PCR. Data are expressed as percent of input. […]
Cells were lysed on ice for 15 min in either radioimmunoprecipitation assay lysis buffer (Boston BioProducts) or EBC lysis buffer (50 mM Tris [pH 8.0], 250 mM NaCl, and 0.5% Nonidet-P40 [NP-40]) containing phosphatase and complete protease inhibitors (Roche). […] Immunoblots were developed, and band intensity was quantified using Fiji ([42]).
Background: Immunoblotting shows a protein as a band on a membrane.

Data set [3] concerns the target proteins of U3A human fibrosarcoma cells (4462 proteins detected) (Homo sapiens, UniProt Q96PE7). Type of data set: cell-based. As to conditions: protein MCEE; U3A, 10 μM, 2 h.
Data set [4] concerns the target proteins of U3A human fibrosarcoma cells (4462 proteins detected) (Homo sapiens, UniProt Q9H5Q4). Type of data set: cell-based. As to conditions: protein TFB2M; U3A cells.
The test system of the next data set is STAT3-dependent genes. Details: method as in PMID 33373063. As to conditions: chronic lymphocytic leukemia; cited from earlier work.
The next data set deals with U3A cells. In words: Cellular ATP levels (CellTiter-Glo). It counts as cell-based, human. The following applies: 10 μM, 6 h. (Cellular ATP, detected with luciferase, serves as a proxy for viable cell number.)
The test system of data set [5] is RNA pol II recruitment in SKBR3 cells. Nature of the data set: Chromatin immunoprecipitation, RNA polymerase II binding at target genes. It counts as cell-based, human. The following applies: 10 μM 1 h, 10 ng/ml LIF 30 min.
Method: (§1) Nuclei were centrifuged at 660g for 5 min at 4 °C and lysed in 300 μl of nuclear lysis buffer (50 mM Tris [pH 8.1], 10 mM EDTA, 1% SDS, and phosphatase and protease inhibitors). […] Lysate was then added to 60 μl of Protein A/G PLUS agarose beads (catalog no.: 2003; Santa Cruz Biotechnology) and rotated for 4 to 6 h at 4 °C. […] Beads were resuspended in 150 μl elution buffer (100 mM sodium bicarbonate and 1% SDS) and incubated overnight at 65 °C. DNA was purified using a PCR Purification Kit (Qiagen) according to the manufacturer's protocol. qPCR was performed using the indicated primers (Table S3). Results were normalized to input.
The test system of data set [6] is STAT3 target genes in U3A cells. In words: STAT3 target gene expression by qRT-PCR in U3A cells. Type of data set: cell-based, human. As to conditions: 10 μM 1 h, OSM 90 min. In general terms: Quantitative PCR measures a nucleic acid by following its amplification.
In data set [7] the target is T1, DHFR. Nature of the data set: Cellular thermal shift assay (CETSA) in U3A cell lysate. It counts as binding. The following applies: 10 μM, 10 min.
Method: (§2) Protein abundance was measured by immunoblotting and band quantification.
(§3) U3A cells were cultured in DMEM (Thermo Fisher Scientific) with 10% heat-inactivated fetal bovine serum and 1% penicillin/streptomycin. […] Cells were washed once with PBS, harvested using trypsin, and centrifuged at 300g. The pellet was resuspended in Tris-buffered saline (TBS) supplemented with cOmplete protease inhibitor cocktail (Roche), aliquoted (50 μl; 8 × 10^5 cells per temperature) into PCR strip tubes, and heated at the indicated temperature in a Veriti Thermal Cycler (Applied Biosystems) for 3 min, then cooled for another 3 min at room temperature. Cells were then lysed by freeze–thawing three times with 3-min incubations in an ethanol/dry ice bath and a water bath at 37 °C. The lysates were then centrifuged at 17,000g for 20 min at 4 °C to remove cellular debris and pelleted protein aggregates. Supernatants (40 μl) were transferred to new tubes and prepared for immunoblotting. […] Briefly, U3A cells in exponential growth rate were collected, resuspended in TBS supplemented with cOmplete protease inhibitor cocktail (Roche), lysed by freeze–thaw cycle, and centrifuged at 17,000g for 20 min at 4 °C. […] Band intensities were quantified using Fiji ([42]) and then plotted and fitted in GraphPad Prism (GraphPad Software, Inc) to obtain apparent Tagg values.
Another data set in a line: physchem. The following applies: DHFR enzymatic assay medium with 5% DMSO, 37 °C, aqueous with cosolvent or surfactant or cyclodextrin, kinetic from dmso stock.
The test system of data set [8] is STAT3 DNA binding in SKBR3 cells. In words: Chromatin immunoprecipitation, STAT3 binding at target genes. It counts as cell-based, human. The following applies: 10 μM 1 h, 10 ng/ml LIF 30 min.
Method: as §1
The subject of data set [9] is STAT3 target genes in SKBR3 cells. In words: STAT3 target gene expression by qRT-PCR in SKBR3 cells. It counts as cell-based, human. As to conditions: 10 μM 1 h, OSM 60 min. The procedure:
Cells were stimulated with 10 ng/ml interleukin 6 (Peprotech) or 10 ng/ml OSM (Peprotech). Cells were stimulated for 15 min for whole cell lysate immunoblotting, 60 to 90 min for qRT–PCR, and 5 to 6 h for luciferase reporter assays.
Total RNA was extracted from cells using the RNeasy Mini Kit (Qiagen). Complementary DNA was generated using the TaqMan Reverse Transcription Reagents (Invitrogen). qPCR was performed in triplicate or quadruplicate using the Power SYBR Green PCR Master Mix (Invitrogen) on a 7500 Real-Time PCR System (Applied Biosystems) or a QuantStudio 6 Flex Real-Time PCR System (Applied Biosystems). Specificity of amplification was confirmed by melting curve analysis. Cycle threshold (CT) values for target genes were normalized to the endogenous reference gene GAPDH. Primer sequences (Table S3) were designed from the University of California Santa Cruz genome browser reference mRNA sequences using Primer3 ([43]).

Data set [10] concerns the target T1, DHFR. In words: Cellular thermal shift assay (CETSA) in intact U3A cells. Type of data set: cell-based. The following applies: 10 μM, 10 min.
Method: as §2, §3
Details of data set [11]: method as in printed. As to conditions: patients taking this drug for months at a time; ref not given; cited from earlier work.
The target in data set [12] is T1, DHFR. The following applies: DHFR enzymatic IC50.
A further data set deals with CHCHD2 (Homo sapiens, UniProt Q9Y6H1). In words: Cellular thermal shift assay (CETSA) in intact U3A cells. It counts as cell-based. The following applies: 10 μM, 10 min.
The nature of data set [13]: Apoptosis assay (FITC annexin V / propidium iodide flow cytometry). Type of data set: cell-based. The following applies: human; U3A cells, 6 h time point, same treatment as ATP assay; read-out: viable cells.
Setting [14] is: 11 μM DHFR, 130 μM ligand, 200 μM NADPH, […] DMSO, 25 °C.

Sequence of proteins of U3A human fibrosarcoma cells (4462 proteins detected) (Homo sapiens, UniProt Q96PE7) (Q96PE7 37-176): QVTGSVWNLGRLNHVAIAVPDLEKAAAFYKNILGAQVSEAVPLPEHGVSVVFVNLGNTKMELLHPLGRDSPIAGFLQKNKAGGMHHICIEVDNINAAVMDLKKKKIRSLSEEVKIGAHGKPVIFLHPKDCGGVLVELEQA
Sequence of CHCHD2 (Q9Y6H1 whole entry): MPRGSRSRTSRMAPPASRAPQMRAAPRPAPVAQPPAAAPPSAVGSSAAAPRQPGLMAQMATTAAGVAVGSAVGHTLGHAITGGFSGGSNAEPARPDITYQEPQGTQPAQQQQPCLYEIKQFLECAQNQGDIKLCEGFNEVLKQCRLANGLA
Sequence of proteins of U3A human fibrosarcoma cells (4462 proteins detected) (Homo sapiens, UniProt Q9H5Q4) (Q9H5Q4 20-396): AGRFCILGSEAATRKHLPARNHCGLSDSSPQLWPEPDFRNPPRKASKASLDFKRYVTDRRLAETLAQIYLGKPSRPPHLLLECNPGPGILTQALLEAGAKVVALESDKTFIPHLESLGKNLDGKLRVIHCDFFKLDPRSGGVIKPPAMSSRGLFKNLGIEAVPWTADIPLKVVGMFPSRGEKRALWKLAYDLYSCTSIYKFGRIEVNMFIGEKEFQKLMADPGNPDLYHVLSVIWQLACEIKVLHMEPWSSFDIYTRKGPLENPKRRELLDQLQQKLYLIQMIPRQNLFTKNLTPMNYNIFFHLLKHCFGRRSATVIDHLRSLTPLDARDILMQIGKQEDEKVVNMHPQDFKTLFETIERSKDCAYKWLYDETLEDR
Method for CHCHD2: as §2
U3A cells were cultured in DMEM (Thermo Fisher Scientific) with 10% heat-inactivated fetal bovine serum and 1% penicillin/streptomycin. […] Cells were washed once with PBS, harvested using trypsin, and centrifuged at 300g. The pellet was resuspended in Tris-buffered saline (TBS) supplemented with cOmplete protease inhibitor cocktail (Roche), aliquoted (50 μl; 8 × 10^5 cells per temperature) into PCR strip tubes, and heated at the indicated temperature in a Veriti Thermal Cycler (Applied Biosystems) for 3 min, then cooled for another 3 min at room temperature. Cells were then lysed by freeze–thawing three times with 3-min incubations in an ethanol/dry ice bath and a water bath at 37 °C. The lysates were then centrifuged at 17,000g for 20 min at 4 °C to remove cellular debris and pelleted protein aggregates. Supernatants (40 μl) were transferred to new tubes and prepared for immunoblotting. […] DHFR stabilization was evaluated with superoxide dismutase 1 as a thermostable loading control. Band intensities were quantified using Fiji ([42]) and then plotted and fitted in GraphPad Prism (GraphPad Software, Inc) to obtain apparent Tagg values.
(A) DHFR protein levels in Fig 2C were quantified and plotted. […] Soluble protein levels were analyzed by immunoblotting with the indicated antibodies. […]

In the case of `CCc1nc(N)nc(N)c1-c1ccc(Cl)cc1` [pyrimethamine], in the data set on STAT5, the “transcriptional activity of STAT5” value is “no effect”. Also, the ΔH at DHFR [1] (setting [14]) was -11.6 ± 0.7 kcal/mol. Besides, the ΔS on DHFR [1] (setting [14]) was −2.8 ± 1 cal/mol/°C. Moreover, at DHFR [1] (one-site model), the stoichiometry amounted to 1.0 ± 0.2 sites. Moreover, the “OSM-stimulated nuclear pSTAT3 or total STAT3” value in [2] is “no effect”. The “Log2 (PYR/DMSO), MCEE” value in [3] came out at 0.25. For the same compound, in [4], the “Log2 (PYR/DMSO)” value came out at 0.18. Moreover, the “inhibition of expression of STAT3-dependent genes in patients” value in the data set on STAT3-dependent genes is “on-target activity”. Besides, the “reduction of cellular ATP levels” value in the data set with U3A cells is “about 75%”. In data set [5], the “pol II recruitment at BCL6” value is on record as “complete loss”. Also, the “OSM-stimulated BCL6 expression” value in data set [6] and in data set [9] was “significantly reduced” each time. The results for the “DHFR aggregation temperature (Tagg) in the presence of drug” value at DHFR [7] and at DHFR [10] were approximately 53.2 °C and 50.6 °C, respectively. Moreover, the solubility (as a rule, how much of the substance goes into solution per volume) in the data set “physchem” is more than 1000 µM. The “LIF-stimulated STAT3 binding at BCL6” value in data set [8] is “minimal reduction”. In addition, in [11], the “concentration routinely achieved in the serum of patients” value is 10 µM. The “difference in potency between pyrimethamine and methotrexate” value on DHFR [12] is on record as approximately 500 fold. In addition, the “CHCHD2 stabilization by CETSA” value on CHCHD2 was “failed to validate”. Also, the viability at 6 h, 10 μM in data set [13] was approximately 100%.
